The values that follow come from PubChem BioAssay (NCI).

Experiment in all cases: inhibition of tumour cell growth, NCI panel, 48 h
Test [1] concerns CAKI-1 renal.
Test [2] has as its system CCRF-CEM leukemia.
Test [3] deals with HL-60(TB) leukemia.
Test [4] relates to MALME-3M melanoma.
Test [5] relates to MOLT-4 leukemia.
In test [6] the test system is NCI/ADR-RES ovarian.
In test [7] the test system is OVCAR-3 ovarian.
Test [8] concerns RXF 393 renal.
For test [9], the system named is SF-539 CNS.
In test [10] the test system is SR leukemia.

Values joined by “and” are separate entries in the source; they are usually repeats but may differ in a detail not shown here. Equal entries are not always repeated.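 Each compound was tested at five concentrations against cells in 96-well plates for 48 hours. GI50 marks 50% less growth. At the TGI there is no net growth.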

As for `O=C(Nc1cccc(Cl)c1)c1cc2ccccc2cc1O`, the GI50 in [1] was 2.1 µM and 1.51 µM; in test [2], 5.58 µM and 8.61 µM; in [3], 3.16 µM and 1.61 µM; in [4] it was 0.71 µM; in test [5] it was 4.07 µM and 4.04 µM; in [6], 2.62 µM and 2.06 µM. For the same compound, the GI50 in test [7] is 1.43 µM; in [8], 2.74 µM and 2.93 µM; in test [9] it was 3.17 µM and 0.577 µM; in test [10], 3.9 µM and 3.79 µM. In addition, the TGI in [1] was more than 100 µM; in test [2], more than 100 µM; in test [4], 21.9 µM; in [5], more than 100 µM; in test [7] it was more than 100 µM; in test [8], > 100 µM and 14.5 µM. For the same compound, the TGI in test [9] was 28.8 µM and > 100 µM; in test [10] it was more than 100 µM.
On to `O=C(O)c1c(-c2nccc3ccccc23)[nH]c(-c2ccccc2)c1S(=O)(=O)O`, for which the TGI in [1], in [2], in [3], in test [4], in test [5] and in [6] was more than 100 µM in each case. Besides, the TGI in test [7], in test [8], in [9] and in test [10] was more than 100 µM throughout.
As for `O=C(N/N=C\c1cc(Br)ccc1O)c1ccncc1`, the GI50 in test [1] was 1.04 µM; in test [2], 0.423 µM; in test [3] it was 1.28 µM; in test [4], 5.76 µM; in test [5] it was 0.551 µM; in [6] it was 1.42 µM. Besides, the GI50 is 0.435 µM in [7], 1.89 µM in test [8], 2.93 µM in test [9] and 2.45 µM in test [10]. Moreover, the TGI in test [1] was more than 100 µM; in [2] it was more than 100 µM; in test [3], 5.57 µM; in [4], 78.5 µM; in test [5] it was 23.5 µM; in [6], 34.5 µM. Moreover, the TGI in test [7] is 39.8 µM; in [8], more than 100 µM; in test [9], 48.7 µM; in test [10], more than 100 µM.
Take `COc1cc2cn3c4ccc(O)cc4[nH]c(=O)c3c2cc1OC`: the GI50 in [1] is 0.0158 µM; in test [2], 0.0224 µM; in [3], 0.0264 µM; in test [4], 0.0349 µM; in [5], 0.0439 µM; in test [6], 0.0883 µM. Further, the GI50 is less than 0.01 µM in test [7], less than 0.0122 µM in test [8], 0.0176 µM in [9] and 0.0173 µM in test [10]. The TGI in [1] is 1.3 µM; in [3], 2.3 µM; in test [4], 2.06 µM; in test [5], 2.01 µM; in test [6] it was 2.01 µM; in test [7], 0.214 µM. Further, the TGI was found to be 1.49 µM in test [8], 0.296 µM in test [9] and 1.79 µM in [10].
Regarding `CC(=O)c1c(CBr)n([O-])c2ccccc2[n+]1=O`, the GI50 in test [1] was 12.9 µM; in test [2] it was 2.14 µM; in [3] it was 5.49 µM; in test [4] it was 4.48 µM; in test [5] it was 4 µM; in test [6] it was 19.5 µM. Moreover, the GI50 in test [7] is 3.14 µM; in [8] it was 15.3 µM; in test [9] it was 11.2 µM; in test [10] it was 3.22 µM. Besides, the TGI in [1] is 25.8 µM; in [2], 8.12 µM; in test [3] it was 22.6 µM; in [4], 17.4 µM; in test [5] it was 15.7 µM; in test [6], 50.3 µM. The TGI in [7] came out at 7.67 µM; in test [8], 32.6 µM; in test [9], 24 µM; in [10] it was 8.03 µM.
In the case of `CCN1C(=O)N(CC)C2C1NC(=S)N2/N=C/C=C/c1cccs1` (configuration not stated), the GI50 in [1] was 0.248 µM; in test [2], 0.396 µM; in test [3] it was 0.281 µM; in test [4], 0.485 µM; in test [5], 0.62 µM; in test [6] it was 0.296 µM. The GI50 in test [7] is 0.241 µM; in test [8] it was 0.182 µM; in test [9], 0.226 µM; in test [10], 0.217 µM. In addition, the TGI in [1] is more than 100 µM; in test [2], more than 100 µM; in test [3], 0.857 µM; in [4], more than 100 µM; in [5], more than 100 µM; in test [6], more than 100 µM. Moreover, the TGI in test [7] is 0.715 µM; in test [8] it was more than 100 µM; in test [9] it was 0.666 µM; in test [10], more than 38.9 µM.
For `CCOC(=O)N1CCN(C(=O)c2ccc(C(F)(F)F)nc2Nc2cc(Cl)ccc2C)CC1`, the GI50 in test [1] is 21.1 µM; in [2] it was 18.9 µM; in test [3] it was 12.1 µM; in test [4], 12 µM; in [5], 6.63 µM; in test [6], 15.4 µM. For the same compound, the GI50 in test [7] was 8.85 µM; in [8], 14 µM; in test [9], 33.7 µM; in [10], 7.74 µM. Also, the TGI was 64.5 µM in test [1]; more than 100 µM in test [2]; 38 µM in [3]; 41 µM in [4]; 64.8 µM in test [5]; more than 100 µM in test [6]. The TGI in [7] is 47.2 µM; in test [8], 65.2 µM; in [9], more than 100 µM; in [10], 65.7 µM.
